Laboratory results reported in patent US8927280B2, “Compositions and methods for promoting the generation of definitive endoderm” (President and Fellows of Harvard College, priority 2009, dated 2015).

Test system: gut tube of E8.75 mouse embryos
Experiment: Injection of compound induced endoderm into gut tube of E8.75 mouse embryos, ex vivo embryo culture
Type: in vivo
Conditions: for incorporation of induced endodermal cells into gut tube (in words): FoxA2, Cldn6 and YFP staining; for embryos in which induced cells integrated into the gut: cells treated 6 days, injected into E8.75 embryos, 24-30 hrs ex vivo culture
Description: Mouse E8.5 ICR embryos were dissected in Hanks Balanced Salt Solution and cultured in the DMEM/F12 (Invitrogen) media supplemented with 50% rat serum (Valley Biomedical), penicillin, streptomycin, glutamine at 37° C. for 20-24 hrs. The YFP mouse ES cells were cultured in the presence of hit compounds for 6 days to induce endoderm formation and then cells were dissociated with trypsin and approx. 100 000 cells were injected into gut tube of E8.75 embryos. Following injections, embryos were transferred to rotating bottle culture unit and were then cultured in media (1.5-2 ml per embryo) as above under humidified conditions at 40% O2, 5% CO2, 55% N2, and 37° C. After 30 hrs culture, embryos were fixed in 4% paraformaldehyde in PBS, embedded in tissue-tek and cryosections were stained with antibodies against Cld6, FoxA2 an YFP.
For chemically derived endoderm to be useful, it is important to determine its developmental potential, beyond the expression of endodermal markers. The ultimate goal is to direct the cells to form functional beta cells. To begin to address this possibility and functional potential of derived populations, mouse ES cells ubiquitously expressing enhanced yellow fluorescent protein (EYFP) (Hadjantonakis et al., 2002) were induced to form endoderm with IDE1, IDE2, or DMSO (control). At day 6 of treatment, the inventors dissociated and injected the cells into the gut tube (a derivative of endoderm) of live E8.75 embryos. The lumen of the gut tube can be accessed prior to the completion of embryonic turning and gut tube closure and therefore provides a developmental window for functional assessment of ES-derived endoderm cells. Chemically derived endoderm was injected into the primitive gut tube at the anterior and posterior intestinal portals. At this time the gut tube is still open and anterior intestinal portal is accessible (FIG. 6A). The embryos were cultured ex vivo for 24-30 hrs during which time the lateral walls of the embryonic gut fold ventrally and the gut tube closes, around E9.5. […] Cells induced by IDE1 treatment integrated into the gut, in 8 out of 35 cases, and in 7 out of 29 embryos for IDE2. Conversely, DMSO (control) treated cells never integrate into the developing gut tube (0/10 and 0/11, respectively) and instead remain in the lumen (FIG. 6B).

Compound	incorporation of induced endodermal cells into gut tube (in words)	embryos in which induced cells integrated into the gut
O=C(O)CCCCCC(=O)N/N=C/c1ccccc1C(=O)O [IDE1]	incorporate into gut tube and show expression of gut tube markers	8 out of 35
O=C(O)CCCCCC(=O)NN=C1CCCC1 [IDE2]	incorporate into gut tube and show expression of gut tube markers	7 out of 29
